# Experiments:
# [1] = Stability of the compound of formula (II) in hydrophilic environment; assay type: physicochemical
# [2] = Solubility of the compound of formula (II); assay type: physicochemical
smiles,measurement,setting,value
CC[C@H](C)[C@@H]1NC(=O)[C@H](Cc2ccc(O)cc2)N(C)C(=O)[C@H]([C@@H](C)CC)N2C(=O)[C@H](CC[C@H]2O)NC(=O)[C@H](CC(C)C)NC(=O)[C@@H](NC(=O)[C@H](CCC(N)=O)NC(=O)C(C)C)[C@@H](C)OC1=O [compound of formula (II)],stability in the presence of water,[1]; presence of water,subject to hydrolysis
same,stability in a hydrophilic environment,[1]; water and polar organic solvents/co-solvents,tendency to degradeation
same,solubility in lipophilic excipients,[2]; lipophilic excipients,low solubility
same,solubility in polar organic solvents,[2]; polar organic solvents,good solubility
same,solubility in water and aqueous buffers,[2]; water and aqueous buffers,moderate solubility

# Reference: patent publication US8680054B2, “Suspension type topical formulations comprising cyclic depsipeptide” (Novartis AG, priority 2011, dated 2014)
